Data taken from patent US12522587B2, “Cancer treatments targeting cancer stem cells” (Remedy Plan, Inc., priority 2018, dated 2026).
Where two headings read alike, the source gives them in different places.

System: AGS cells
Experiment: Cell viability in AGS cells (CellTiter Glo2, 8-point dose response, 4 days)
Format: cell-based, human
Description: AGS cells were treated with DMSO (no drug control) or each compound in Table 5 in an 8-point dose response for 4 days. Cell viability was measured using CellTiter Glo2. The IC50 of each compound was determined using CDD Vault.

Structure (SMILES)	IC50 (Homo sapiens, AGS, 96 h)	IC50
CCC(=O)N1CCc2cc(-c3ccc(C(=O)NCc4cccnc4)cc3)c(C)cc21 (single isomer, unassigned) [Compound I-203, 4-(6-methyl-1-propionylindolin-5-yl)-N-(pyridin-3-ylmethyl)benzamide]	1.54 µM	
CC(=O)N1CCc2cc(-c3ccc(C(=O)NCc4cccnc4)cc3)ccc21 [Compound I-42, 4-(1-acetylindolin-5-yl)-N-(pyridin-3-ylmethyl) benzamide]	3.83 µM	
CCC(=O)Nc1ccc(-c2ccc(C(=O)NCc3cccnc3)cc2)cc1 [Compound I-44, 4′-propionamido-N-(pyridin-3-ylmethyl)-[1,1′-biphenyl]-4-Carboxamide]	> 30 µM	
CC(=O)N1CCCc2cc(-c3ccc(C(=O)NCc4cccnc4)cc3)ccc21 [Compound I-46, 4-(1-acetyl-1,2,3,4-tetrahydroquinolin-6-yl)-N-(pyridin-3-ylmethyl)benzamide]	> 17.5 µM	> 18.3 µM
O=C(NCc1cccnc1)c1ccc(-c2ccc3c(c2)CCN3C(=O)CO)cc1 [Compound I-47, 4-(1-(2-hydroxyacetyl)indolin-5-yl)-N-(pyridin-3-ylmethyl)benzamide]	3.22 µM	
CCC(=O)N1CCc2cc(-c3ccc(S(=O)(=O)NCc4cccnc4)cc3)ccc21 [Compound I-48, 4-(1-propionylindolin-5-yl)-N-(pyridin-3-ylmethyl)benzenesulfonamide]	9.45 µM	
CCC(=O)N1CCc2cc(-c3ccc(C(=O)NCc4ccncc4)cc3)ccc21 [Compound I-49, 4-(1-propionylindolin-5-yl)-N-(pyridin-4-ylmethyl)benzamide]	> 30 µM	
CCC(=O)N1CCc2cc(-c3cccc(C(=O)NCc4cccnc4)c3)ccc21 [Compound I-50, 3-(1-propionylindolin-5-yl)-N-(pyridin-3-ylmethyl)benzamide]	> 30 µM	
CCC(=O)N1CCc2cc(-c3ccc(C(=O)NCc4cncnc4)cc3)ccc21 [Compound I-51, 4-(1-propionylindolin-5-yl)-N-(pyrimidin-5-ylmethyl)benzamide]	> 30 µM	
CCC(=O)N1CCc2cc(-c3ccc(C(=O)NCc4ccnnc4)cc3)ccc21 [Compound I-52, 4-(1-propionylindolin-5-yl)-N-(pyridazin-4-ylmethyl)benzamide]	> 10 µM	> 8.01 µM
COCCN1CCc2cc(-c3ccc(C(=O)NCc4cccnc4)cc3)ccc21 [Compound I-53, 4-(1-(2-methoxyethyl)indolin-5-yl)-N-(pyridin-3-ylmethyl)benzamide]	3.52 µM	
CCC(=O)N1CCc2cc(-c3ccc(C(=O)NCc4cccnc4)nc3)ccc21 [Compound I-55, 5-(1-propionylindolin-5-yl)-N-(pyridin-3-ylmethyl)picolinamide]	2.89 µM	3.66 µM
CCC(=O)n1ncc2cc(-c3ccc(C(=O)NCc4cccnc4)cc3)ccc21 [Compound I-56, 4-(1-propionyl-1H-indazol-5-yl)-N-(pyridin-3-ylmethyl)benzamide]	7.68 µM	
CCC(=O)N1CCc2cc(-c3ccc(C(=O)NC(C)c4cccnc4)cc3)ccc21 (stereo not drawn) [Compound I-57, 4-(1-propionylindolin-5-yl)-N-(1-(pyridin-3-yl)ethyl)benzamide]	> 28.2 µM	
CCC(=O)N1CCc2cc(-c3ccc(C(=O)NC(C)(C)c4cccnc4)cc3)ccc21 [Compound I-58, 4-(1-propionylindolin-5-yl)-N-(2-(pyridin-3-yl)propan-2-yl)benzamide]	> 30 µM	
CCC(=O)N1CCc2cc(-c3ccc(C(=O)NCc4ccc(C)nc4)cc3)ccc21 [Compound I-59, N-((6-methylpyridin-3-yl)methyl)-4-(1-propionylindolin-5-yl) benzamide]	> 30 µM	
CCC(=O)N1CCc2cc(-c3ccc(C(=O)NCc4ccc(C)nc4C)cc3)ccc21 [Compound I-60, N-((2,6-dimethylpyridin-3-yl)methyl)-4-(1-propionylindolin-5-yl)benzamide]	0.344 µM	0.384 µM
